Measured values published in patent publication US20230312550A1, “N-(2-(4-CYANOTHIAZOLIDIN-3-YL)-2-OXOETHYL)-QUINOLINE-4-CARBOXAMIDES” (AstraZeneca AB, priority 2020, published 2023).
pIC50, pKd: −log10 of the molar value. In brackets after ≈: the same amount, converted by molar mass.

Columns and labels:
[1] = target: human Fibroblast activation protein alpha (hFAP) (Homo sapiens (Human), UniProt Q12884); test: hFAP inhibition assay (tight binders); assay type: biochemical; conditions: Ala-Pro-AMC 20 μM, n = 1 or geometric mean n = 2-6; also: hFAP 2.4 pM
Sequence of human Fibroblast activation protein alpha (hFAP) (Q12884 38-760): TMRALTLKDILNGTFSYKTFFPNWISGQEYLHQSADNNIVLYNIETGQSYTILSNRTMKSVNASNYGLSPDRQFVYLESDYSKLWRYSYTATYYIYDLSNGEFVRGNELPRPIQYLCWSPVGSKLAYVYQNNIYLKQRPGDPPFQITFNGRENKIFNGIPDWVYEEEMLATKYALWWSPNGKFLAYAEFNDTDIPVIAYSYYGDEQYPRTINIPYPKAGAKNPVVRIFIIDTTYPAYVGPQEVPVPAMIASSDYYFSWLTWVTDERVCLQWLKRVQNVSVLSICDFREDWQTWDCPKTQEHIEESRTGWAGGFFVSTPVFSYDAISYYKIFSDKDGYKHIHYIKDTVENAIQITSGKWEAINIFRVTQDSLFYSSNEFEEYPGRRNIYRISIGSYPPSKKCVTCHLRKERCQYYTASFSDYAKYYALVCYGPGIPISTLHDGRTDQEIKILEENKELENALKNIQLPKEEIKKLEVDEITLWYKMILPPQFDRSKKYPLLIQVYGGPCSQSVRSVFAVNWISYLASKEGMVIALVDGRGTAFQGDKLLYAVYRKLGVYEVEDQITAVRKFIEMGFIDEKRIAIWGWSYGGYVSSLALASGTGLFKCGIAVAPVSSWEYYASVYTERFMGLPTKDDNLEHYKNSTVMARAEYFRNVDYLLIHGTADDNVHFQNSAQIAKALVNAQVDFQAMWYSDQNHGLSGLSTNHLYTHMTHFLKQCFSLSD
Method: The plates were read on a PHERAstar® reader with excitation 340 nm and emission 460 nm. Data were analyzed in Genedata Screener®. IC50 values were determined by plotting % inhibition versus log compound concentration and using a one site dose response model.

hFAP (M39-A757) = hFAP (M39-A757) (Homo sapiens (Human), UniProt Q12884); test: hFAP binding assay (surface plasmon resonance); conditions: SPR, 20° C.; for hFAP Binding assay k(off) / hFAP Binding assay k(on): single cycle kinetics; for pKd: n = 1 or geometric mean n = 2-4
Sequence of hFAP (M39-A757) (Q12884 39-757): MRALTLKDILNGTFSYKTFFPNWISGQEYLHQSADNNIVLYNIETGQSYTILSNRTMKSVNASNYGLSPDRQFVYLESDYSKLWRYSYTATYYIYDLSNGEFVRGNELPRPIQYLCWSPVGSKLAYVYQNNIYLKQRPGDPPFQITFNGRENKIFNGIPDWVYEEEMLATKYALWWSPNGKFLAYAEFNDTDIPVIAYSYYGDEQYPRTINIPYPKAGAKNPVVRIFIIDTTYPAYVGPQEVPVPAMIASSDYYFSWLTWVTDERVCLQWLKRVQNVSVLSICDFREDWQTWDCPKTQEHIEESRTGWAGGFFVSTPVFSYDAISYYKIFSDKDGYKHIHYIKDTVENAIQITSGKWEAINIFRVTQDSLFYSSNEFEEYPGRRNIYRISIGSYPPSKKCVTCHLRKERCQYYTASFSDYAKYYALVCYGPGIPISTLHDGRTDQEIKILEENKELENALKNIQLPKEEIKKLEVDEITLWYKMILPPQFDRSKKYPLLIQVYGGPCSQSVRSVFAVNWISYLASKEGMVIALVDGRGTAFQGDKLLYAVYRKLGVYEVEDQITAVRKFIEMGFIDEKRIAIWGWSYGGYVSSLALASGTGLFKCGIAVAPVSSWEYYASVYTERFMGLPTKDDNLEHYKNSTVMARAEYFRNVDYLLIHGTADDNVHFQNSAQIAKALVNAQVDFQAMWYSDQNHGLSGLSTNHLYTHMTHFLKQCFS

[2] = target: Prolyl endopeptidase, Prolyl Oligopeptidase (hPREP) (Homo sapiens (Human), UniProt P48147); test: hPrep inhibition assay; assay type: biochemical; conditions: hPREP 0.6 nM, Z-Gly-Pro-amino-methylcoumarin 50 μM; read-out: PREP IC50
Sequence of Prolyl endopeptidase, Prolyl Oligopeptidase (hPREP) (P48147 whole entry): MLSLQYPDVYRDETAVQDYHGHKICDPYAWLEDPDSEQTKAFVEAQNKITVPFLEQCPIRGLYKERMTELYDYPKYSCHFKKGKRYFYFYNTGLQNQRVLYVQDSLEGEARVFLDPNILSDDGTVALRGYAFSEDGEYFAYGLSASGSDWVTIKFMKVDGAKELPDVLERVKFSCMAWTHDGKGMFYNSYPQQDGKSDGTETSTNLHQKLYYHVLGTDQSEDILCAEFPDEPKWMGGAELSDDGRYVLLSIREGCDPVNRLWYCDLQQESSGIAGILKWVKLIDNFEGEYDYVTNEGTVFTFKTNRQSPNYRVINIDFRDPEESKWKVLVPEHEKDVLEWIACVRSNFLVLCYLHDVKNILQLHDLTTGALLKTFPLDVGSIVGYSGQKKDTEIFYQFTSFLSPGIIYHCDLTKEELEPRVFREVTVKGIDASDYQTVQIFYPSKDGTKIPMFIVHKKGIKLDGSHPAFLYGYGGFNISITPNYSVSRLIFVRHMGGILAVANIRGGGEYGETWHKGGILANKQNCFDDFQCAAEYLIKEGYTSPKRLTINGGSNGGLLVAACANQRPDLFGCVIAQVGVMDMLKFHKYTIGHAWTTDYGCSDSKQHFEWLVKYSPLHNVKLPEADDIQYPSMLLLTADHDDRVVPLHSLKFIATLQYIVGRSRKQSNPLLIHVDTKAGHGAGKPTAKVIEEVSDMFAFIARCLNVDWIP
Method: Compounds were tested in a biochemical inhibition assay using Prolyl endopeptidase, Prolyl Oligopeptidase (hPREP) enzyme at 0.6 nM FAC (R&D Systems, 4308-SE) and the substrate Z-Gly-Pro-amino-methylcoumarin (Bachem, I-1145) at 50 μM FAC. 384 Low volume black plates (Greiner #784076) were used. […] Plates were incubated for 15 min at rt in dark. 4 μL, 100 μM substrate solution (25 mM Tris HCl, 250 mM NaCl, 0.01% Triton X-100, 5 mM Glutathione, pH 7.5) was added to each well. Plates were centrifuged at 1000 rpm and incubated for 20 min at rt in dark. The plates were read on a PHERAstar® reader with excitation 340 nm and emission 460 nm. Data were analyzed in Genedata Screener®. IC50 values were determined by plotting % inhibition versus log compound concentration and using a one site dose response model.

Kinetic solubility = conditions: kinetic from dmso stock
Method: Kinetic solubility was measured as described in Comput Aided Mol Des 2015, 29, 795.

[3] = Metabolic stability in rat hepatocytes (rHep); conditions: n = 1 or geometric mean of n = 2-3
[4] = Metabolic stability in human liver microsomes (HLM); conditions: human
Method: Metabolic stability in HLM was measured as described in J Comput Aided Mol Des 2015, 29, 795.

[5] = Solubility, kinetic solubility, n = 1 or average of n = 2-3
[6] = HLM CLint, n = 1 or average of n = 2-3

| Structure (SMILES) | pIC50 [1] | hFAP Binding assay k(off) (hFAP (M39-A757)) | hFAP Binding assay k(on) (hFAP (M39-A757)) | pKd (hFAP (M39-A757)) | pIC50 [2] | solubility (Kinetic solubility; [5]) | rHep CLint [3] | microsomal CLint [4, 6] | solubility (Kinetic solubility) | microsomal CLint [4] |
| --- | --- | --- | --- | --- | --- | --- | --- | --- | --- | --- |
| CC1(C)CN(c2ccc3nccc(C(=O)NCC(=O)N4CSC[C@H]4C#N)c3c2)C(=O)O1 [Example 13, (R)—N-(2-(4-Cyanothiazolidin-3-yl)-2-oxoethyl)-6-(5,5-dimethyl-2-oxooxazolidin-3-yl)quinoline-4-carboxamide] | 10.39 | 0.000076 s⁻¹ | 9200000 M⁻¹ s⁻¹ | 10.85 | 6.42 | 27 µM (≈ 11.9 µg/mL) | 5.4 μL/min/1E6 | 12 µL/min/mg | – | – |
| Cc1ccn(-c2ccc3nccc(C(=O)NCC(=O)N4CSC[C@H]4C#N)c3c2)c1 [Example 121, (R)—N-(2-(4-Cyanothiazolidin-3-yl)-2-oxoethyl)-6-(3-methyl-1H-pyrrol-1-yl)quinoline-4-carboxamide] | 9.82 | 0.000016 s⁻¹ | 1100000 M⁻¹ s⁻¹ | 10.92 | 7.06 | 44 µM (≈ 17.8 µg/mL) | 13 μL/min/1E6 | 43 µL/min/mg | – | – |
| CO[C@@H]1CCN(c2ccc3nccc(C(=O)NCC(=O)N4CSC[C@H]4C#N)c3c2)C1 [Example 161, N-(2-((R)-4-Cyanothiazolidin-3-yl)-2-oxoethyl)-6-((R)-3-methoxy-pyrrolidin-1-yl)quinoline-4-carboxamide] | 10.28 | 0.00028 s⁻¹ | 14000000 M⁻¹ s⁻¹ | 10.66 | 6.33 | 84 µM (≈ 35.7 µg/mL) | 8.5 μL/min/1E6 | 6.7 µL/min/mg | – | – |
| C[C@@H]1CN(c2ccc3nccc(C(=O)NCC(=O)N4CSC[C@H]4C#N)c3c2)C[C@H](C)[C@]1(C)O [Example 193, N-(2-((R)-4-Cyanothiazolidin-3-yl)-2-oxoethyl)-6-((3R,4S,5S)-4-hydroxy-3,4,5-trimethylpiperidin-1-yl)quinoline-4-carboxamide] | 9.62 | 0.00012 s⁻¹ | 740000 M⁻¹ s⁻¹ | 9.80 | 6.44 | 940 µM (≈ 440 µg/mL) | 11 μL/min/1E6 | 53 µL/min/mg | – | – |
| N#C[C@@H]1CSCN1C(=O)CNC(=O)c1ccnc2ccc(-n3ccc4cc(F)ccc43)cc12 [Example 120, (R)—N-(2-(4-Cyanothiazolidin-3-yl)-2-oxoethyl)-6-(5-fluoro-1H-indol-1-yl)quinoline-4-carboxamide] | 9.82 | – | – | 9.89 | 7.60 | 0.92 µM (≈ 0.423 µg/mL) | 27 μL/min/1E6 | 100 µL/min/mg | – | – |
| N#C[C@@H]1CSCN1C(=O)CNC(=O)c1ccnc2ccc(-n3ccc4c3CCCC4)cc12 [Example 219, (R)—N-(2-(4-Cyanothiazolidin-3-yl)-2-oxoethyl)-6-(4,5,6,7-tetrahydro-1H-indol-1-yl)quinoline-4-carboxamide] | 9.96 | 0.0002 s⁻¹ | 2400000 M⁻¹ s⁻¹ | 10.08 | 6.64 | 2.5 µM (≈ 1.11 µg/mL) | 75 μL/min/1E6 | 160 µL/min/mg | – | – |
| N#C[C@@H]1CSCN1C(=O)CNC(=O)c1ccnc2ccc(-n3ccc(C(F)(F)F)n3)cc12 [Example 118, (R)—N-(2-(4-Cyanothiazolidin-3-yl)-2-oxoethyl)-6-(3-(trifluoromethyl)-1H-pyrazol-1-yl)quinoline-4-carboxamide] | 10.00 | – | – | 9.77 | 6.44 | 20 µM (≈ 9.21 µg/mL) | 21 μL/min/1E6 | 41 µL/min/mg | – | – |
| N#C[C@@H]1CSCN1C(=O)CNC(=O)c1ccnc2ccc(N3CC4C(C3)C4(F)F)cc12 (stereo partly drawn) [Example 160, N-(2-((R)-4-Cyanothiazolidin-3-yl)-2-oxoethyl)-6-(6,6-difluoro-3-azabicyclo[3.1.0]hexan-3-yl)quinoline-4-carboxamide] | 10.30 | 0.000074 s⁻¹ | 1100000 M⁻¹ s⁻¹ | 10.17 | 6.68 | 1.8 µM (≈ 0.798 µg/mL) | 33 μL/min/1E6 | 45 µL/min/mg | – | – |
| N#C[C@@H]1CSCN1C(=O)CNC(=O)c1ccnc2ccc(N3CC(CCC(F)(F)F)C3)cc12 [Example 142, (R)—N-(2-(4-Cyanothiazolidin-3-yl)-2-oxoethyl)-6-(3-(3,3,3-trifluoropropyl)azetidin-1-yl)quinoline-4-carboxamide] | 10.06 | 0.000055 s⁻¹ | 1800000 M⁻¹ s⁻¹ | 10.55 | 6.28 | 1.8 µM (≈ 0.86 µg/mL) | 6.7 μL/min/1E6 | 43 µL/min/mg | – | – |
| N#C[C@@H]1CSCN1C(=O)CNC(=O)c1ccnc2ccc(N3CCC[C@@H]3C3CC3)cc12 (single isomer, unassigned) [Example 199, N-(2-((R)-4-Cyanothiazolidin-3-yl)-2-oxoethyl)-6-((R*)-2-cyclopropyl-pyrrolidin-1-yl)quinoline-4-carboxamide] | 9.52 | 0.00026 s⁻¹ | 2300000 M⁻¹ s⁻¹ | 10.00 | 6.77 | 85 µM (≈ 37 µg/mL) | 250 μL/min/1E6 | > 300 µL/min/mg | – | – |
| N#C[C@@H]1CSCN1C(=O)CNC(=O)c1ccnc2ccc(N3CC4(CCCC4(F)F)C3)cc12 [Example 141, (R)—N-(2-(4-Cyanothiazolidin-3-yl)-2-oxoethyl)-6-(5,5-difluoro-2-azaspiro[3.4]octan-2-yl)quinoline-4-carboxamide] | 10.23 | 0.000078 s⁻¹ | 1400000 M⁻¹ s⁻¹ | 10.21 | 6.34 | – | 11 μL/min/1E6 | – | 140 µM (≈ 66 µg/mL) | 54 µL/min/mg |
| N#C[C@@H]1CSCN1C(=O)CNC(=O)c1ccnc2ccc(-n3ncc4c3CCCC4)cc12 [Example 114, (R)—N-(2-(4-Cyanothiazolidin-3-yl)-2-oxoethyl)-6-(4,5,6,7-tetrahydro-1H-indazol-1-yl)quinoline-4-carboxamide] | 10.14 | – | – | 10.21 | 6.64 | 4.5 µM (≈ 2.01 µg/mL) | 36 μL/min/1E6 | 170 µL/min/mg | – | – |
| N#C[C@@H]1CSCN1C(=O)CNC(=O)c1ccnc2ccc(N3CCC[C@H]3C3CC3)cc12 (single isomer, unassigned) [Example 200, N-(2-((R)-4-Cyanothiazolidin-3-yl)-2-oxoethyl)-6-((R*)-2-cyclopropyl-pyrrolidin-1-yl)quinoline-4-carboxamide] | 9.62 | 0.00023 s⁻¹ | 2500000 M⁻¹ s⁻¹ | 10.05 | 6.89 | 81 µM (≈ 35.3 µg/mL) | >300 μL/min/1E6 | > 300 µL/min/mg | – | – |
